{
  "source": "patent US20100150894A1",
  "about": "“COMPOSITION FOR PREVENTION OF CANCER” (Kaneka Corporation, priority 2005, published 2010)",
  "tested_on": "azoxymethane (AOM)-induced aberrant crypt foci (ACF) in colon",
  "experiment": "Cancer prevention evaluation: AOM-induced colon aberrant crypt foci (ACF) in rats",
  "format": "in vivo",
  "conditions": "male F344 rats, 4 weeks; for number of formation of ACF compared with the control group: AOM 15 mg/kg s.c. once a week over two weeks",
  "method": "6-week-old male F344 rats were divided into 3 groups (2 treated groups and 1 control group; each group consisted of 9 rats) and a colon carcinogen azoxymethane (AOM) was injected subcutaneously at the dose of 15 mg/kg body weight once a week over two weeks. From the day before injection of AOM, to the treated groups, coenzyme Q10 (Kaneka Q10, Kaneka Corporation) was fed together with feed at the concentration of 200 or 500 ppm, respectively. 4 weeks later, aberrant crypt foci (ACF), which is a precancerous change in colon cancer, was analyzed. After the rats were sacrificed, the colons (from the cecum to rectum) were enucleated and fixed using a 10% neutral buffered formalin. After the fixation, the colons were washed with a phosphate buffered-saline and stained with a 0.2% methylene blue-containing phosphate buffered-saline. Then, the number and size of ACF were measured using a microscope. […] As observed above, it was made clear that coenzyme Q10 has an effect for inhibiting the initial stage of AOM-induced formation of colon ACF, which is a precancerous change of colon cancer.",
  "data": [
    {"smiles": "COC1=C(OC)C(=O)C(C/C=C(\\C)CC/C=C(\\C)CC/C=C(\\C)CC/C=C(\\C)CC/C=C(\\C)CC/C=C(\\C)CC/C=C(\\C)CC/C=C(\\C)CC/C=C(\\C)CCC=C(C)C)=C(C)C1=O", "note": "[coenzyme Q10]", "values": [
      {"measurement": "number of formation of ACF compared with the control group", "setting": "coenzyme Q10 200 ppm in feed", "result": 76.6, "unit": "%"},
      {"measurement": "number of formation of ACF compared with the control group", "setting": "coenzyme Q10 500 ppm in feed, p<0.01", "result": 68.0, "unit": "%"},
      {"measurement": "size difference in ACF between control group and treated groups", "setting": "AOM-induced, coenzyme Q10 200 or 500 ppm in feed", "result": "not recognized"}
    ]}
  ]
}
